Among the data in PubChem BioAssay (NCI) are GI50 and TGI values, retold here.

Several values for one entry are separate records, joined by “and”; a condition that tells them apart may be missing. Identical values can stand only once.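 Tested at 5 concentrations; 48 h exposure; 96-well plates; endpoints linearly interpolated, else capped at highest concentration. GI50 = concentration required for 50% inhibition of growth. TGI is the concentration that stops growth completely.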

Usually GI50 stands for the concentration at which growth is held to half of that of the control. One may read the TGI as the concentration giving total growth inhibition. Read a high TGI as lower sensitivity of the cells.

What all share (assay): DTP human tumour cell line panel, 48 h
For assay [1], the system named is MDA-MB-435.
The subject of assay [2] is HCT-15 colon.
Assay [3] deals with SK-OV-3 ovarian.
For assay [4], the system named is OVCAR-5 ovarian.
Assay [5] has as its system A549 NSCLC.
Assay [6] concerns HCT-116 colon.
Assay [7] concerns HOP-62 NSCLC.
The test system of assay [8] is NCI-H226 lung.
In assay [9] the test system is SN12C renal.
Assay [10] has as its system SK-MEL-28 melanoma.

For the molecule `CC(C)COC(=O)c1ccc2[nH]c(O)c(C=Nc3ccc(S(N)(=O)=O)cc3)c2c1`, the GI50 in assay [1] was 1.68 µM; in assay [2], 5.9 µM; in assay [3], 2.19 µM; in assay [4], 1.87 µM; in [5], 1.74 µM; in [6], 0.613 µM. Moreover, the GI50 in [7] is 1.58 µM; in [8], 1.73 µM; in [9], 1.21 µM; in [10], 1.69 µM. For the same molecule, the TGI turned out to be 5.79 µM in assay [1]; 25 µM in assay [2]; 6.25 µM in assay [3]; 13.8 µM in assay [4]; 5.88 µM in assay [5]; 3 µM in [6]. Moreover, the TGI in [7] was found to be 4.84 µM; in assay [8], 6.79 µM; in [9], 7.94 µM; in assay [10], 4.75 µM.

On to `C/C=C(\C)C(=O)N[C@H]1C(O)C[C@]2(C)C3CC[C@@]4(C)C(CC[C@@H]4C(C)N(C)C)C3CCC2C1O` (stereo not given in full), for which the GI50 in [1] was 2.54 µM; in assay [2], 1.71 µM; in assay [3], 16.1 µM; in [4], 16.7 µM; in [5], 9.54 µM; in assay [6] it was 2.28 µM. For the same molecule, the GI50 in assay [7] is 5.97 µM; in assay [8] it was 12.1 µM; in assay [9] it was 8.47 µM; in assay [10], 2.04 µM. In addition, the TGI in assay [1] was 5.85 µM; in assay [2] it was 5.01 µM; in [3], 42.4 µM; in [4] it was above 47.9 µM; in assay [5], 33.6 µM; in assay [6] it was 6.39 µM. Moreover, the TGI was 11.8 µM in [7], above 70.2 µM in assay [8], 37.9 µM in assay [9] and 3.83 µM in assay [10].

On to `[Cl][Cd][Cl]`, for which the GI50 is 8.26 µM in assay [1]; 52.2 µM in assay [2]; 44.3 µM and 12.4 µM in assay [3]; > 61.9 µM and 99.2 µM in assay [4]; > 47.8 µM and 33.2 µM in assay [5]; 40.3 µM and 48.3 µM in [6]. In addition, the GI50 in assay [7] was 39.7 µM; in assay [8] it was > 44 µM and 11.9 µM; in [9], > 69 µM and 53 µM; in [10] it was 17.9 µM and 11.6 µM. The TGI in assay [1] is 30.9 µM; in assay [2], 150 µM; in assay [3], > 60 µM and 26 µM; in assay [4], 98.4 µM and 179 µM; in assay [5], > 66.5 µM and 106 µM; in assay [6], 117 µM. Further, the TGI in assay [7] is 93.1 µM; in assay [8], > 69.7 µM and 43.6 µM; in assay [9], 158 µM; in assay [10], 34.6 µM and 30.4 µM.

Turning to `NCCSCCc1ccccc1`, the TGI in assay [1], in assay [2], in assay [3], in [4], in assay [5] and in assay [6] was above 100 µM each time. Moreover, the TGI in assay [7], in [8], in [9] and in [10] was above 100 µM throughout.

As to `c1ccc(CNc2nc(Nc3ccccc3)nc3ccccc23)cc1`, the GI50 in [1] is 1.72 µM; in assay [3], 3.26 µM; in assay [4] it was 1.86 µM; in assay [5], 1.84 µM; in assay [6], 1.71 µM; in assay [7] it was 2.3 µM. The figures for the GI50 in assay [8], in assay [9] and in assay [10] were 2.26 µM, 1.73 µM and 1.7 µM, respectively. Moreover, the TGI in [1] worked out at 3.67 µM; in assay [3] it was 9.51 µM; in [4] it was 4.19 µM; in assay [5], 5.35 µM; in assay [6] it was 3.3 µM; in assay [7], 5.17 µM. Moreover, the figures for the TGI in assay [8], in assay [9] and in [10] were 11.6 µM, 3.7 µM and 3.24 µM, respectively.

Regarding `ClCc1ccc(Cn2cnc3c(Cl)nc(Cl)nc32)cc1`, the GI50 is 12.6 µM in assay [1]; 1.86 µM in [2]; 13.3 µM in assay [3]; 18.2 µM in assay [4]; 18.6 µM in assay [5]; 1.72 µM in [6]. Also, the GI50 in assay [7] is 2.19 µM; in assay [8], 3.55 µM; in assay [9], 7.18 µM; in assay [10], 2.69 µM. The TGI came to 25.1 µM in assay [1]; 3.77 µM in assay [2]; 29.6 µM in assay [3]; 34.5 µM in [4]; 37.1 µM in assay [5]; 3.6 µM in [6]. In addition, the total growth inhibition concentration (TGI) in [7] stood at 5.09 µM; in assay [8], 9.63 µM; in [9], 20.8 µM; in assay [10], 6.99 µM.

In the case of `COc1ccc2nc(NC(=O)c3cccnc3Nc3cc(OC)c(OC)c(OC)c3)sc2c1`, the GI50 is 1.85 µM in [1]; 11.2 µM in assay [2]; 3.72 µM in assay [3]; 14.5 µM in assay [4]; 7.38 µM in assay [5]; 4.5 µM in assay [6]. The GI50 in assay [7] was 6.33 µM; in assay [8], 10.7 µM; in assay [9], 11.7 µM; in [10] it was 7.88 µM. Also, the TGI was found to be 10.4 µM in assay [1]; 85.6 µM in [2]; 14.5 µM in [3]; 29 µM in assay [4]; 22 µM in assay [5]; 18.4 µM in assay [6]. Moreover, the TGI in assay [7] came to 22.3 µM; in assay [8] it was 96.7 µM; in assay [9], 27.5 µM; in assay [10] it was 21.3 µM.

Take `Cn1cnc([N+](=O)[O-])c1Sc1ncn[nH]1`: the GI50 in assay [1] is above 100 µM; in assay [2], 70.1 µM; in [3], above 100 µM; in assay [4], above 100 µM; in assay [5] it was above 100 µM; in [6], above 100 µM. Besides, the GI50 in [7], in [8], in assay [9] and in assay [10] was above 100 µM throughout. For the same molecule, the TGI in assay [1], in assay [2], in assay [3], in assay [4], in assay [5] and in [6] was above 100 µM throughout. Moreover, the TGI in assay [7], in assay [8], in assay [9] and in [10] was above 100 µM each time.

On to `Cc1cccc2c(N)c3ccccc3nc12`, for which the GI50 is 1.67 µM in assay [1]; 0.67 µM in [2]; 2.12 µM in [3]; 1.37 µM in [4]; 1.02 µM in assay [5]; 0.454 µM in assay [6]. In addition, the GI50 was 0.854 µM in assay [7], 1.44 µM in assay [8], 1.16 µM in [9] and 2.34 µM in assay [10]. In addition, the TGI is 4.54 µM in assay [1]; 10.4 µM in assay [2]; 17.4 µM in assay [3]; 11.9 µM in assay [4]; 4.02 µM in assay [5]; 11.2 µM in [6]. For the same molecule, the TGI amounted to 5.3 µM in assay [7], 6.19 µM in assay [8], 12.7 µM in assay [9] and 6.53 µM in [10].

As for `C=CCCCc1ccc(C(O)CCCCCCCCCCCC)o1` (stereo not given), the GI50 is 26.2 µM in assay [1]; 15.5 µM in assay [2]; 16.4 µM in assay [3]; 15.9 µM in [4]; 30.4 µM in [5]; 15.5 µM in assay [6]. In addition, the GI50 is 16 µM in assay [7], 17.8 µM in assay [8], 17.2 µM in assay [9] and 20.6 µM in [10]. Besides, the TGI in [1] stood at 58.7 µM; in assay [2] it was 30.3 µM; in [3], 37.2 µM; in [4], 30.4 µM; in assay [5], 96.3 µM; in assay [6], 28.9 µM. Further, the TGI came to 30.2 µM in assay [7], 34.3 µM in [8], 31.4 µM in assay [9] and 50.6 µM in assay [10].

Turning to `CN1C(Cl)=NS(=O)(=O)c2ccccc21`, the TGI in [1], in assay [2], in assay [3], in assay [4], in assay [5] and in assay [6] was above 100 µM throughout. Moreover, the TGI in assay [7], in assay [8], in assay [9] and in assay [10] was above 100 µM each time.

With `CCN(CC)CCOc1ccc(C(=O)/C=C\c2ccc(Cl)cc2Cl)cc1`, the GI50 in assay [1] is 2.56 µM; in assay [2] it was 2.15 µM; in assay [3] it was 11.8 µM; in assay [4], 10.3 µM; in assay [5], 6.55 µM; in [6], 1.56 µM. Also, the GI50 in assay [7] was 11 µM; in assay [8] it was 11.3 µM; in [9] it was 6.52 µM; in assay [10], 2.55 µM. Moreover, the TGI in assay [1] was found to be 7.36 µM; in assay [2], 5.16 µM; in assay [3] it was 24.3 µM; in [4], 27.2 µM; in assay [5] it was 22.6 µM; in [6] it was 3.31 µM. The TGI turned out to be 24.9 µM in assay [7], 26.6 µM in assay [8], 21.9 µM in [9] and 7.75 µM in assay [10].

On to `O=C1NCCS(=O)(=O)/C1=C\C=C\c1cccc(C(F)(F)F)c1`, for which the GI50 is 1.81 µM in assay [1]; 1.56 µM in assay [2]; 5.83 µM in assay [3]; 2.98 µM in [5]; 1.41 µM in assay [6]; 3.72 µM in [7]. Besides, the GI50 was 2.75 µM in [8], 3.08 µM in [9] and 2.92 µM in assay [10]. In addition, the TGI was 6.47 µM in assay [1]; 5.29 µM in [2]; 18.3 µM in assay [3]; 11.6 µM in assay [5]; 3.72 µM in assay [6]; 12.7 µM in assay [7]. The TGI in assay [8] stood at 7.65 µM; in [9], 12 µM; in assay [10], 11.3 µM.

For `CC1=C(/C=C/C(C)=C/C=C/C(C)=C/CO)C(C)(C)CCC1`, the TGI in [1] was 62.4 µM; in assay [2] it was above 100 µM; in assay [3], above 100 µM; in [4], 61.2 µM; in [5], 45.5 µM; in assay [7], 47.5 µM. In addition, the TGI in [8] turned out to be 50.9 µM; in assay [9], 60.8 µM; in [10], 48.5 µM.

Regarding `Cc1cccc(Nc2cnc(N)nc2N)c1`, the TGI in assay [1], in assay [2], in assay [3], in assay [5], in assay [6] and in assay [7] was above 100 µM throughout. The TGI in assay [8], in [9] and in assay [10] was above 100 µM throughout.

Consider `O=C1C=CC(O)C2C1CC13SSC4(CC5C(=O)C=CC(O)C5N4C1=O)C(=O)N23` (stereo not given), for which the TGI was 0.434 µM in assay [1]; 0.794 µM in [2]; 14.1 µM in [3]; 0.571 µM in assay [4]; 10.8 µM in assay [5]; 1.15 µM in assay [7]. In addition, the results for the TGI in assay [8], in assay [9] and in [10] were 1.19 µM, 0.743 µM and 1.91 µM, respectively.

As for `COc1cc2c3c(n(CCCN=[N+]=[N-])c(=O)c2cc1OC)-c1ccc(N(C)C)cc1C3=O`, the GI50 in assay [1], in [2], in assay [3], in [4], in assay [5] and in assay [7] was above 100 µM each time. Also, the GI50 in assay [8], in [9] and in assay [10] was above 100 µM in each case. For the same molecule, the TGI in assay [1], in assay [2], in [3], in [4], in assay [5] and in assay [7] was above 100 µM each time. For the same molecule, the TGI in assay [8], in [9] and in [10] was above 100 µM throughout.

Turning to `COc1cc2c(c(OC3OC(CO)C(O)C(O)C3O)c1)C(=O)CC(c1ccc(O)cc1)O2` (stereo not given), the concentration for total growth inhibition (TGI) in assay [1], in assay [2], in [3], in assay [4], in assay [5] and in [6] was above 100 µM throughout. The TGI in assay [8], in assay [9] and in assay [10] was above 100 µM throughout.
